The target of the assay is T1, recombinant human KLK5 (Homo sapiens, UniProt Q9Y337).
T1 construct: purchased Novoprotein or R&D Systems C415 or 1108-SE
T1 sequence (Q9Y337 23-293): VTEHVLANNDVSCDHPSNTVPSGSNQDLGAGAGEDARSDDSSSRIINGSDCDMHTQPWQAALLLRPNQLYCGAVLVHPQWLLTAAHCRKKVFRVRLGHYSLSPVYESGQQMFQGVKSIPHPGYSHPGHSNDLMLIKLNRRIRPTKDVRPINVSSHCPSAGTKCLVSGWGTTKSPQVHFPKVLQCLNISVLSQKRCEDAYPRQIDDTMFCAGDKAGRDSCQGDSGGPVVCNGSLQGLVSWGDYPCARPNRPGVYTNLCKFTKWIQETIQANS
Kind of assay: Kallikrein (KLK) 5 enzymatic assay (Boc-VPR-AMC fluorogenic substrate). It counts as biochemical. The conditions noted are these: recombinant human KLK5 0.1 μg/well, Boc-VPR-AMC 100 μM, pH 7.5, room temperature, 1% DMSO; tested a minimum of three times. In short, it runs like this:
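Fluorogenic rate assay at pH 7.5 (0.1 M NaH2PO4, 1% DMSO, room temperature), run at least three times per compound. Compound was premixed with 0.1 μg/well recombinant human KLK5 before adding 100 μM Boc-VPR-AMC; AMC release was read at ex 380/em 460 nm, and IC50 derived from inhibition of rate vs DMSO control.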
One may read the IC50 as the point on the concentration scale where inhibition reaches its midpoint. For the compound `Cc1cccc(O[C@@H]2CCc3ccc(-c4cccc5c(N)nccc45)cc32)c1CC(=O)O` [Compound 259c, (R)-2-(2-((6-(1-aminoisoquinolin-5-yl)-2,3-dihydro-1H-inden-1-yl)oxy)-6-methylphenyl)acetic acid], the IC50 was under 1000 nM.
For `Cc1cccc(O[C@@H]2CCc3ccc(-c4ccc5ccnc(N)c5c4)cc32)c1CC(=O)O` [Compound 260b, (R)-2-(2-((6-(1-aminoisoquinolin-7-yl)-2,3-dihydro-1H-inden-1-yl)oxy)-6-methylphenyl)acetic acid], the IC50 is under 1000 nM.
For the compound `Nc1nccc2c(-c3cc(-c4ccoc4)c4c(c3)C(Oc3ccccc3CC(=O)O)CC4)cccc12` (centres unmarked) [Compound 261b, 2-(2-((6-(1-aminoisoquinolin-5-yl)-4-(furan-3-yl)-2,3-dihydro-1H-inden-1-yl)oxy)phenyl)acetic acid], the IC50 is under 1000 nM.
Regarding `CC(C)n1nc(COc2ccccc2CC(=O)O)c2cc(-c3cccc(C(=N)N)c3O)ccc21` [Compound 262e, 2-(2-((5-(3-carbamimidoyl-2-hydroxyphenyl)-1-isopropyl-1H-indazol-3-yl)methoxy)phenyl)acetic acid], the IC50 is under 1000 nM.
As to `COc1c(C(=N)N)cccc1-c1ccc2c(c1)c(COc1ccccc1CC(=O)O)nn2C1CCCC1` [Compound 263d, 2-(2-((5-(3-carbamimidoyl-2-methoxyphenyl)-1-cyclopentyl-1H-indazol-3-yl)methoxy)phenyl)acetic acid], the IC50 was under 1000 nM.
Consider `COc1c(C(=N)N)cccc1-c1ccc2c(c1)c(COc1ccccc1CC(=O)O)nn2C1CCOC1` (centres unmarked) [Compound 264d, 2-(2-((5-(3-carbamimidoyl-2-methoxyphenyl)-1-(tetrahydrofuran-3-yl)-1H-indazol-3-yl)methoxy)phenyl)acetic acid], for which the IC50 was under 1000 nM.
Under `Nc1nccc2c(-c3ccc4c(c3)c(COc3ccccc3CC(=O)O)nn4C3CCC(F)(F)C3)cccc12` (centres unmarked) [Compound 265h, 2-(2-((5-(1-aminoisoquinolin-5-yl)-1-(3,3-difluorocyclopentyl)-1H-indazol-3-yl)methoxy)phenyl)acetic acid] stands under 1000 nM.
`Nc1nccc2ccc(-c3ccc4c(c3)c(COc3ccccc3CC(=O)O)nn4C3CCC(F)(F)C3)cc12` (centres unmarked) [Compound 266b, 2-(2-((5-(1-aminoisoquinolin-7-yl)-1-(3,3-difluorocyclopentyl)-1H-indazol-3-yl)methoxy)phenyl)acetic acid]: the IC50 is under 1000 nM.
For `COc1cccc(CC(=O)O)c1OCc1coc2c(OC)cc(-c3ccc4ccnc(N)c4c3)cc12` [Compound 267g, 2-(2-((5-(1-aminoisoquinolin-7-yl)-7-methoxybenzofuran-3-yl)methoxy)-3-methoxyphenyl)acetic acid], the IC50 was over 10000 nM.
For the compound `N=C(N)c1cccc(-c2cc3c(COc4ccccc4C(O)C(=O)O)cccc3o2)c1` (centres unmarked) [Compound 268d, 2-(2-((2-(3-carbamimidoylphenyl)benzofuran-4-yl)methoxy)phenyl)-2-hydroxyacetic acid], the IC50 lay in the range of 1000 to 10000 nM.
Take `COc1cc2nn(C3CCC3)c(COc3ccccc3CC(=O)O)c2cc1-c1ccc2ccnc(N)c2c1` [Compound 269f, 2-(2-((5-(1-aminoisoquinolin-7-yl)-2-cyclobutyl-6-methoxy-2H-indazol-3-yl)methoxy)phenyl)acetic acid]: the IC50 was under 1000 nM.
Turning to `COc1cc2nn(C3CCC3)c(COc3ccccc3CC(=O)O)c2cc1-c1cccc2c(N)nccc12` [Compound 270b, 2-(2-((5-(1-aminoisoquinolin-5-yl)-2-cyclobutyl-6-methoxy-2H-indazol-3-yl)methoxy)phenyl)acetic acid], the IC50 is over 10000 nM.
As for `COc1cc2nn(C3CCC3)c(COc3ccccc3CC(=O)O)c2cc1-c1cccc(C(=N)N)c1` [Compound 271c, 2-(2-((5-(3-carbamimidoylphenyl)-2-cyclobutyl-6-methoxy-2H-indazol-3-yl)methoxy)phenyl)acetic acid], the concentration for half-maximal inhibition (IC50) was in the range of 1000 to 10000 nM.
In the case of `CC(C)Oc1c(C(=N)N)cccc1-c1ccc2c(c1)c(COc1ccccc1CC(=O)O)nn2C(C)C` [Compound 272f, 2-(2-((5-(3-carbamimidoyl-2-isopropoxyphenyl)-1-isopropyl-1H-indazol-3-yl)methoxy)phenyl)acetic acid], the IC50 is 1000 to 10000 nM.
For `CCOc1c(C(=N)N)cccc1-c1ccc2c(c1)c(COc1ccccc1CC(=O)O)nn2C(C)C` [Compound 273e, 2-(2-((5-(3-carbamimidoyl-2-ethoxyphenyl)-1-isopropyl-1H-indazol-3-yl)methoxy)phenyl)acetic acid] the value was under 1000 nM.
For the compound `Nc1nccc2c(-c3ccc4c(c3)c(Cn3ccc5cccc(C(=O)O)c53)nn4C3CCOC3)cccc12` (centres unmarked) [Compound 274e, 1-((5-(1-aminoisoquinolin-5-yl)-1-(tetrahydrofuran-3-yl)-1H-indazol-3-yl)methyl)-1H-indole-7-carboxylic acid], the IC50 lay in the range of 1000 to 10000 nM.
For the compound `Nc1nccc2ccc(-c3ccc4c(c3)c(Cn3ccc5cccc(C(=O)O)c53)nn4C3CCOC3)cc12` (centres unmarked) [Compound 275b, 1-((5-(1-aminoisoquinolin-7-yl)-1-(tetrahydrofuran-3-yl)-1H-indazol-3-yl)methyl)-1H-indole-7-carboxylic acid], the IC50 was over 10000 nM.
Under `Cc1cccc(OCc2nn(C3CCC(F)(F)C3)c3ccc(-c4cccc5c(N)nccc45)cc23)c1CC(=O)O` (centres unmarked) [Compound 276c, 2-(2-((5-(1-aminoisoquinolin-5-yl)-1-(3,3-difluorocyclopentyl)-1H-indazol-3-yl)methoxy)-6-methylphenyl)acetic acid] stands under 1000 nM.
As to `Cc1cccc(OCc2nn(C3CCC(F)(F)C3)c3ccc(-c4ccc5ccnc(N)c5c4)cc23)c1CC(=O)O` (centres unmarked) [Compound 277b, 2-(2-((5-(1-aminoisoquinolin-7-yl)-1-(3,3-difluorocyclopentyl)-1H-indazol-3-yl)methoxy)-6-methylphenyl)acetic acid], the IC50 was under 1000 nM.
As for `CC(C)(C)OC(=O)NCc1cc(-c2cccc3c(N)nccc23)cc2c(COc3ccccc3CC(=O)O)nn(C3CCCCO3)c12` (centres unmarked) [Compound 278c, 2-(2-((5-(1-aminoisoquinolin-5-yl)-7-(((tert-butoxycarbonyl)amino)methyl)-1-(tetrahydro-2H-pyran-2-yl)-1H-indazol-3-yl)methoxy)phenyl)acetic acid], the IC50 was in the range of 1000 to 10000 nM.
Take `Nc1nccc2c(-c3cnc4c(c3)c(COc3ccccc3CC(=O)O)cn4C3CCOC3)cccc12` (centres unmarked) [Compound 279g, 2-(2-((5-(1-aminoisoquinolin-5-yl)-1-(tetrahydrofuran-3-yl)-1H-pyrrolo[2,3-b]pyridin-3-yl)methoxy)phenyl)acetic acid]: the IC50 is under 1000 nM.
`NCc1cc(-c2cccc3c(N)nccc23)cc2c(COc3ccccc3CC(=O)O)n[nH]c12` [Compound 280a, 2-(2-((5-(1-aminoisoquinolin-5-yl)-7-(aminomethyl)-1H-indazol-3-yl)methoxy)phenyl)acetic acid]: the half-maximal inhibitory concentration (IC50) was 1000 to 10000 nM.
Turning to `Nc1nccc2ccc(-c3ccc4c(c3)c(COc3ccccc3CC(=O)O)nn4C3CCOCC3)cc12` [Compound 281g, 2-(2-((5-(1-aminoisoquinolin-7-yl)-1-(tetrahydro-2H-pyran-4-yl)-1H-indazol-3-yl)methoxy)phenyl)acetic acid], the IC50 was under 1000 nM.

Values taken from patent US20240239752A1, “BICYCLIC HETEROAROMATIC INHIBITORS OF KLK5” (BioCryst Pharmaceuticals, Inc., priority 2021, published 2024).
